Test results published in PubChem BioAssay (NCI).
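Five compound concentrations were applied to cells in 96-well plates for 48 hours; endpoints were derived by simple linear interpolation of the resulting dose-response curve. GI50 = concentration required for 50% inhibition of growth. At the TGI there is no net growth.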

Legend:
Test in all cases: inhibition of tumour cell growth, NCI panel, 48 h; in the data active = GI50 below about 0.43 µM; inactive = the rest
[1] = test system: 786-0 renal
[2] = test system: A498 renal
[3] = test system: A549 NSCLC
[4] = test system: ACHN renal
[5] = test system: BT-549 breast
[6] = test system: CAKI-1 renal
[7] = test system: CCRF-CEM leukemia
[8] = test system: COLO 205 colon
[9] = test system: DU-145 prostate
[10] = test system: EKVX NSCLC
[11] = test system: HCC-2998 colon
[12] = test system: HCT-116 colon
[13] = test system: HCT-15 colon
[14] = test system: HL-60(TB) leukemia
[15] = test system: HOP-62 NSCLC
[16] = test system: HOP-92 NSCLC
[17] = test system: HS 578T breast
[18] = test system: HT29 colon
[19] = test system: IGROV1 ovarian
[20] = test system: K-562 leukemia
[21] = test system: KM12 colon
[22] = test system: LOX IMVI melanoma
[23] = test system: M14 melanoma
[24] = test system: MALME-3M melanoma
[25] = test system: MCF7 breast
[26] = test system: MDA-MB-231 breast
[27] = test system: MDA-MB-435
[28] = test system: MOLT-4 leukemia
[29] = test system: NCI-H226 lung
[30] = test system: NCI-H23 lung
[31] = test system: NCI-H460 lung
[32] = test system: NCI-H522 lung
[33] = test system: NCI/ADR-RES ovarian
[34] = test system: OVCAR-3 ovarian
[35] = test system: OVCAR-4 ovarian
[36] = test system: OVCAR-5 ovarian
[37] = test system: PC-3 prostate
[38] = test system: RPMI-8226 leukemia
[39] = test system: RXF 393 renal
[40] = test system: SF-268 CNS
[41] = test system: SF-295 CNS
[42] = test system: SF-539 CNS
[43] = test system: SK-MEL-2 melanoma
[44] = test system: SK-MEL-28 melanoma
[45] = test system: SK-MEL-5 melanoma
[46] = test system: SK-OV-3 ovarian
[47] = test system: SN12C renal
[48] = test system: SNB-19 CNS
[49] = test system: SNB-75 CNS
[50] = test system: SR leukemia
[51] = test system: SW-620 colon
[52] = test system: T-47D breast
[53] = test system: TK-10 renal
[54] = test system: U251 CNS
[55] = test system: UACC-257 melanoma
[56] = test system: UACC-62 melanoma
[57] = test system: UO-31 renal

CCOC(=O)c1cc(NS(=O)(=O)c2ccc(C)cc2)cc(C(=O)OCC)c1
83.6 µM: TGI [52]
inactive: GI50 [1] 53.7 µM | GI50 [2] 34.3 µM | GI50 [3] 41.4 µM | GI50 [4] 42.3 µM | GI50 [5] 34.8 µM | GI50 [6] 43.5 µM | GI50 [7] 37.2 µM | GI50 [8] 36.1 µM | GI50 [9] 34.9 µM | GI50 [10] 31.7 µM | GI50 [11] 19.5 µM | GI50 [12] 39.5 µM | GI50 [13] 39.6 µM | GI50 [14] 26.5 µM | GI50 [15] 79.6 µM | GI50 [16] 32 µM | GI50 [17] 26.4 µM | GI50 [18] 82.7 µM | GI50 [19] 51.7 µM | GI50 [20] 40.2 µM | GI50 [21] 55.9 µM | GI50 [22] 61.4 µM | GI50 [23] 52.5 µM | GI50 [24] > 100 µM | GI50 [25] 28 µM | GI50 [26] 34.9 µM | GI50 [27] 33.6 µM | GI50 [28] 26.6 µM | GI50 [29] 54 µM | GI50 [30] 38.5 µM | GI50 [31] 37.5 µM | GI50 [32] 34.5 µM | GI50 [33] 23.6 µM | GI50 [34] 34.5 µM | GI50 [35] 21.2 µM | GI50 [36] 37.9 µM | GI50 [37] 47.7 µM | GI50 [38] 27 µM | GI50 [39] > 100 µM | GI50 [40] 40.4 µM | GI50 [41] 44.9 µM | GI50 [42] 49.4 µM | GI50 [43] 28.3 µM | GI50 [44] 27 µM | GI50 [45] 31 µM | GI50 [46] 70.7 µM | GI50 [47] 78.1 µM | GI50 [48] 76.1 µM | GI50 [49] 23.1 µM | GI50 [50] 34.4 µM | GI50 [51] > 100 µM | GI50 [52] 21.1 µM | GI50 [53] > 100 µM | GI50 [54] 51.3 µM | GI50 [55] 45.5 µM | GI50 [56] 44.2 µM | GI50 [57] 39.1 µM
68.9 µM: TGI [49]
> 100 µM: TGI [1] | TGI [2] | TGI [3] | TGI [4] | TGI [5] | TGI [6] | TGI [7] | TGI [8] | TGI [9] | TGI [10] | TGI [12] | TGI [13] | TGI [14] | TGI [15] | TGI [16] | TGI [18] | TGI [19] | TGI [20] | TGI [21] | TGI [22] | TGI [23] | TGI [24] | TGI [25] | TGI [26] | TGI [27] | TGI [28] | TGI [29] | TGI [30] | TGI [31] | TGI [32] | TGI [33] | TGI [34] | TGI [36] | TGI [37] | TGI [38] | TGI [39] | TGI [40] | TGI [41] | TGI [42] | TGI [43] | TGI [45] | TGI [46] | TGI [47] | TGI [48] | TGI [50] | TGI [51] | TGI [53] | TGI [54] | TGI [55] | TGI [56] | TGI [57]
85.5 µM: TGI [35]
70.8 µM: TGI [11]
93.5 µM: TGI [44]
69.9 µM: TGI [17]
